Test results as given in publication PMC10257291, “Biological activities of extracts and compounds from Thai Kae-Lae (Maclura cochinchinensis (Lour.) Corner)” (BMC Complementary Medicine and Therapies, 2023).

Legend:
[1] = test system: WT1 protein; design: method as in PMID 29274817; conditions: compounds from Mah-Lueang; cited from earlier work
[2] = test system: red blood cells
Protocol: The whole blood samples were obtained from normal volunteers. Red blood cells were separated by centrifugation and washed 2 times with 0.9% NaCl. Then, 2% RBC suspension was incubated with crude fractional extracts and compounds at 37 °C for 30 min. Triton-X 100 (2%) and NaCl (0.9%) were positive and negative controls, respectively. Then, the supernatant was collected, and haemoglobin concentration was measured by spectrophotometry at 540 nm. The haemolysis induction was calculated using the following equation:5 %Haemolysisinduction=Absorbance of sample/Absorbance of positive contr×100

| Compound | decrease of WT1 protein in KG-1a cells [1] [%] | Haemolysis (%) [2] [%] |
| --- | --- | --- |
| CC(C)=C1C[C@@H]2O[C@@]2(C)CC/C=C(\C)CC1=O [Germacrone-4,5-epoxide] | 92.22 |  |
| CC(C)=C1C[C@H]2[C@@H](CC[C@]2(C)O)[C@](C)(O)CC1=O [zedoarondiol] | 95.52 |  |
| Triton X100 [0.05% Triton X100] |  | 100 |
